Measured values taken from US20240343727A1, “PYRIDAZINONE OR PYRIDINONE COMPOUNDS, PREPARATION METHODS AND USES THEREOF” (InventisBio Co., Ltd., priority 2021, published 2024).

Molecular target: T1, PARP7 (Homo sapiens, UniProt Q7Z3E1)
T1 sequence (Q7Z3E1 1-657): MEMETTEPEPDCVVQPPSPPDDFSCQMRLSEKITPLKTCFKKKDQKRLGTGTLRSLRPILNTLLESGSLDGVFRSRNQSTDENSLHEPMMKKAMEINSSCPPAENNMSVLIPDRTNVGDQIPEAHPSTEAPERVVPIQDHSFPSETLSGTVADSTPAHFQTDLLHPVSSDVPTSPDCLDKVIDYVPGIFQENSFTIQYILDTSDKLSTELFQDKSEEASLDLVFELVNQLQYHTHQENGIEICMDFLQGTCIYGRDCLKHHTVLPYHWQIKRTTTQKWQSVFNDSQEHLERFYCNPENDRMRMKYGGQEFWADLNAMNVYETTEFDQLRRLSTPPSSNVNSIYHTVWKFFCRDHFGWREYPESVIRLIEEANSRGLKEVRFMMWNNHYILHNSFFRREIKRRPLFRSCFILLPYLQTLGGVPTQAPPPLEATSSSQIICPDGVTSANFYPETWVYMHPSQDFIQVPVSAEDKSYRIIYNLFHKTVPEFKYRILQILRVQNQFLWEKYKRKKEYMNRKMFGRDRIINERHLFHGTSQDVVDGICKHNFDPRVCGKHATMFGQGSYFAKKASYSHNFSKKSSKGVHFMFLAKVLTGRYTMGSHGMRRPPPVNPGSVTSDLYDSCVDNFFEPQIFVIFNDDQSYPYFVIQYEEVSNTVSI
Test: PARP7 TR-FRET assay (binding, displacement of biotinylated Probe A)
Conditions: 6 nM PARP7, 2 nM Probe A, 25° C., 30 min
Procedure: Biological Assay Example A: PARP7 TR-FRET Assay
A time-resolved fluorescence energy transfer (TR-FRET) assay was used to test binding activity of compounds to PARP7. Two microliter test compound was added in 384-well plate. Reactions were performed in a 6 uL volume by adding 4 uL mixture of PARP7 and Probe A (a biotinylated probe binding to the PARP7: N-(6-(2-(4-((2-(6-oxo-5-(trifluoromethyl)-1,6-dihydropyridazin-4-yl) isoindolin-5-yl) oxy) piperidin-1-yl) acetamido) hexyl)-5-((3aS,4S,6aR)-2-oxohexahydro-1H-thieno [3,4-d]imidazol-4-yl) pentanamide, made as reported in WO2019212937A1) in assay buffer (20 mM HEPES pH 8.0, 100 mM NaCl, 0.1% BSA, 2 mM DTT and 0.002% Tween20). The final concentration of PARP7 and Probe A were 6 nM and 2 nM, incubating with test compounds at 25° C. for 30 min. Four microliter ULight-anti 6xHis and LANCE Eu-W1024 labeled streptavidin (PerkinElmer) were added with the final concentration of ULight-anti 6xHis and LANCE Eu-W1024 at 4 nM and 0.25 nM. The reaction mixture was incubated at 25° C. for 30 min. The plate was read on a Tecan Spark plate reader (excitation wavelength at 320 nm, emission wavelength at 615 nm and 665 nm with a 90 us delay. The ratio of the 665/615 nm emission was calculated for each well to the amount of complex of PARP7 and Probe A in each well was calculated. The 0.25% DMSO vehicle was used as control and no PARP7 well was as blank well. Inhibition rate is calculated with the formula of % inhibition=100-100*(TRFcmpd-TRFblank)/(TRFcontrol−TRFblank). Inhibition IC50 is calculated with the equation of Y=Bottom+ (Top-Bottom)/(1+10^((LogIC50−X) *Hill Slope))

| IC50 | SMILES |
| --- | --- |
| < 100 nM | O=C(CC1CN(c2n[nH]c(=O)c3ccc(C4CC4)cc23)CCO1)N1CCN(c2ncc(C(F)(F)F)cn2)CC1 (single isomer, unassigned) [Compound 103] |
| < 100 nM | Cc1c(Oc2cccc(C(=O)N3CCN(c4ncc(C(F)(F)F)s4)CC3)c2)n[nH]c(=O)c1C(F)(F)F [Compound 66] |
| < 100 nM | O=C(CC1CN(c2cc(C(F)(F)F)c(=O)[nH]n2)c2ccccc2O1)N1CCN(c2ncc(C(F)F)cn2)CC1 (single isomer, unassigned) [Compound 248] |
| < 100 nM | O=C(CC1CN(c2n[nH]c(=O)c3c(F)cccc23)CCO1)N1CCN(c2ncc(C(F)(F)F)cn2)CC1 (single isomer, unassigned) [Compound 94] |
| < 100 nM | N#Cc1cnc(N2CCN(C(=O)CC3CN(c4cc(C(F)(F)F)c(=O)[nH]n4)c4cc(Cl)ccc4O3)CC2)nc1 (single isomer, unassigned) [Compound 293] |
| < 100 nM | N#Cc1ccc(N2CCN(C(=O)CC3CN(c4cc(C(F)(F)F)c(=O)[nH]n4)c4ccccc4O3)CC2)nc1 (single isomer, unassigned) [Compound 221] |
| 100 to 1000 nM | N#Cc1ccc(N2CCN(C(=O)CC3CN(c4cc(C(F)(F)F)c(=O)[nH]n4)c4ccccc4O3)CC2)nc1 (single isomer, unassigned) [Compound 222] |
| < 100 nM | N#Cc1ccc(N2CCN(C(=O)CC3CN(c4cc(C(F)(F)F)c(=O)[nH]n4)c4cc(C(F)F)ccc4O3)CC2)nc1 (single isomer, unassigned) [Compound 328] |
| < 100 nM | N#CC1CN(c2c(Oc3cccc(C(=O)N4CCN(c5ncc(C(F)(F)F)cn5)CC4)c3)n[nH]c(=O)c2C(F)(F)F)C1 [Compound 60] |
| < 100 nM | Cc1ccc2c(=O)[nH]nc(N3CCOC(CC(=O)N4CCN(c5ncc(C(F)(F)F)cn5)CC4)C3)c2c1 (single isomer, unassigned) [Compound 102] |
| < 100 nM | N#Cc1ccc(N2CCN(C(=O)CC3CN(c4cc(C(F)(F)F)c(=O)[nH]n4)c4cc(C#N)ccc4O3)CC2)nc1 (single isomer, unassigned) [Compound 215] |
| < 100 nM | N#Cc1ccc(N2CCN(C(=O)c3cncc(Oc4n[nH]c(=O)c(C(F)(F)F)c4N4CC5(C4)CC(F)(F)C5)c3)CC2)nc1 [Compound 237] |
| < 100 nM | CCOC1CN(c2c(Oc3cccc(C(=O)N4CCN(c5ncc(C(F)(F)F)cn5)CC4)c3)n[nH]c(=O)c2C(F)(F)F)C1 [Compound 214] |
| < 100 nM | O=C(CC1CN(c2cc(C(F)(F)F)c(=O)[nH]n2)c2ccncc2O1)N1CCN(c2ncc(C(F)(F)F)cn2)CC1 (stereo not drawn) [Compound 347] |
| 100 to 1000 nM | O=C(CC1CN(c2cc(C(F)(F)F)c(=O)[nH]n2)c2ccccc2O1)N1CCN(c2nnc(C(F)(F)F)s2)CC1 (single isomer, unassigned) [Compound 287] |
| 100 to 1000 nM | C#Cc1cc(N2CCOC(CC(=O)N3CCN(c4ncc(C(F)(F)F)cn4)CC3)C2)n[nH]c1=O (single isomer, unassigned) [Compound 45] |
| < 100 nM | O=C(CC1CN(c2cc(C(F)(F)F)c(=O)[nH]n2)c2cc(C(F)F)ccc2O1)N1CCN(c2ncc(C(F)(F)F)cn2)CC1 (single isomer, unassigned) [Compound 227] |
| < 100 nM | O=C(c1cccc(Oc2n[nH]c(=O)c(C(F)(F)F)c2N2CC3(CCC3)C2)c1)N1CCN(c2ccc(C3CC3)cn2)CC1 [Compound 177] |
| 100 to 1000 nM | O=C([C@H]1CN(c2cc(C(F)(F)F)c(=O)[nH]n2)CCO1)N1CCN(c2ncc(C(F)(F)F)cn2)CC1 [Compound 33] |
| < 100 nM | O=C(CC1CN(c2n[nH]c(=O)c3ccc(Cl)cc23)CCO1)N1CCN(c2ncc(C(F)(F)F)cn2)CC1 (single isomer, unassigned) [Compound 100] |
| < 100 nM | CS(=O)(=O)Cc1ccc2c(c1)N(c1cc(C(F)(F)F)c(=O)[nH]n1)CC(CC(=O)N1CCN(c3ncc(C(F)(F)F)cn3)CC1)O2 (single isomer, unassigned) [Compound 270] |

| IC50 | SMILES |
| --- | --- |
| 100 to 1000 nM | O=C(CC1CN(c2n[nH]c(=O)c3cc(Cl)ccc23)CCO1)N1CCN(c2ncc(C(F)(F)F)cn2)CC1 (single isomer, unassigned) [Compound 121] |
| 100 to 1000 nM | COC[C@@H]1C[C@H](OCC(=O)N2CCN(c3ncc(C(F)(F)F)cn3)CC2)c2n[nH]c(=O)c(C(F)(F)F)c2O1 [Compound 116] |
| 100 to 1000 nM | O=C(CC1CN(c2cc(C(F)(F)F)c(=O)[nH]n2)c2cc(F)ccc2O1)N1CCN(c2cnc(C(F)(F)F)cn2)CC1 (single isomer, unassigned) [Compound 292] |
| 100 to 1000 nM | N#Cc1ccc(N2CCN(C(=O)CC3CN(c4cc(C(F)(F)F)c(=O)[nH]n4)c4cc(Cl)ccc4O3)CC2)nc1 (single isomer, unassigned) [Compound 225] |
| < 100 nM | N#Cc1cnc(N2CCN(C(=O)CC3CN(c4cc(C(F)(F)F)c(=O)[nH]n4)c4ccccc4O3)CC2)nc1 (single isomer, unassigned) [Compound 250] |
| < 100 nM | O=C(CC1CN(c2cc(C(F)(F)F)c(=O)[nH]n2)CCC1(F)F)N1CCN(c2ncc(C(F)(F)F)cn2)CC1 (single isomer, unassigned) [Compound 80] |
| < 100 nM | N#Cc1ccc2c(c1)N(c1cc(C(F)(F)F)c(=O)[nH]n1)CC(CC(=O)N1CCN(c3ncc(C(F)(F)F)cn3)CC1)O2 (single isomer, unassigned) [Compound 200] |
| 100 to 1000 nM | Cc1cccc2c(N3CCOC(CC(=O)N4CCN(c5ncc(C(F)(F)F)cn5)CC4)C3)n[nH]c(=O)c12 (single isomer, unassigned) [Compound 106] |
| < 100 nM | CS(=O)(=O)c1ccc2c(c1)N(c1cc(C(F)(F)F)c(=O)[nH]n1)CC(CC(=O)N1CCN(c3ncc(C(F)(F)F)cn3)CC1)O2 (single isomer, unassigned) [Compound 206] |
| < 100 nM | O=C(c1cccc(Oc2n[nH]c(=O)c(C(F)(F)F)c2N2CC3(CCC3)C2)c1)N1CCN(c2ncc(OC(F)(F)F)cn2)CC1 [Compound 276] |
| > 1000 nM | O=C(COC1CCOc2c1n[nH]c(=O)c2C1CC1)N1CCN(c2ncc(C(F)(F)F)cn2)CC1 (single isomer, unassigned) [Compound 129] |
| < 100 nM | C[C@@H]1CN(C(=O)CC2CN(c3cc(C(F)(F)F)c(=O)[nH]n3)c3cc(C#N)ccc3O2)CCN1c1ncc(Cl)cn1 (single isomer, unassigned) [Compound 141] |
| < 100 nM | O=C(c1cncc(Oc2n[nH]c(=O)c(C(F)(F)F)c2N2CC3(C2)CC(F)(F)C3)c1)N1CCN(c2ccc(C(F)(F)F)cn2)CC1 [Compound 335] |
| < 100 nM | N#Cc1cnc(N2CCN(C(=O)c3cc(Oc4n[nH]c(=O)c(C(F)(F)F)c4N4CC5(C4)CC(F)(F)C5)ccn3)CC2)nc1 [Compound 305] |
| < 100 nM | Cc1c(Nc2cccc(C(=O)N3CCN(c4ncc(C(F)(F)F)cn4)CC3)c2)n[nH]c(=O)c1C(F)(F)F [Compound 76] |
| < 100 nM | C#CC1CN(c2c(Oc3cccc(C(=O)N4CCN(c5ncc(C(F)(F)F)cn5)CC4)c3)n[nH]c(=O)c2C(F)(F)F)C1 [Compound 185] |
| < 100 nM | N#Cc1ccc(N2CCN(C(=O)CC3CN(c4cc(C(F)(F)F)c(=O)[nH]n4)c4cc(C(F)F)ccc4O3)CC2)nc1 (single isomer, unassigned) [Compound 327] |
| 100 to 1000 nM | O=C(CC1CN(c2cc(C(F)(F)F)c(=O)[nH]n2)c2ccccc2O1)N1CCN(c2cnc(C(F)(F)F)cn2)CC1 (single isomer, unassigned) [Compound 263] |
| < 100 nM | C[C@H]1CN(C(=O)c2cccc(Oc3n[nH]c(=O)c(C(F)(F)F)c3N3CC4(CCO4)C3)c2)CCN1c1ncc(C(F)(F)F)cn1 [Compound 254] |
| < 100 nM | C[C@@H]1CN(c2cc(C(F)(F)F)c(=O)[nH]n2)C[C@@H](CC(=O)N2CCN(c3ncc(C(F)(F)F)cn3)CC2)O1 (stereo in doubt) [Compound 112] |
| < 100 nM | O=C(c1cccc(Oc2n[nH]c(=O)c(C(F)(F)F)c2NC2CC3(COC3)C2)c1)N1CCN(c2ncc(C(F)(F)F)cn2)CC1 [Compound 202] |
